This is an account of results in PMC5875417 (ACS chemical neuroscience, 2015).

Where “and” joins values, the source holds several entries; their conditions need not be identical. Equal entries are not always repeated. Where two headings read alike, the source gives them in different places.

The target of the assay is human dopamine transporter (hDAT) (Homo sapiens, UniProt Q01959). The assay is described as follows: cell-based. The format is cell-based. To be noted: for Relative persistent current (Ip relative to Io) after washout: as a function of concentration, Ip current remaining after washout before block with cocaine; for Depolarizing current: data not shown.
Chain of human dopamine transporter (hDAT) (Q01959 whole entry): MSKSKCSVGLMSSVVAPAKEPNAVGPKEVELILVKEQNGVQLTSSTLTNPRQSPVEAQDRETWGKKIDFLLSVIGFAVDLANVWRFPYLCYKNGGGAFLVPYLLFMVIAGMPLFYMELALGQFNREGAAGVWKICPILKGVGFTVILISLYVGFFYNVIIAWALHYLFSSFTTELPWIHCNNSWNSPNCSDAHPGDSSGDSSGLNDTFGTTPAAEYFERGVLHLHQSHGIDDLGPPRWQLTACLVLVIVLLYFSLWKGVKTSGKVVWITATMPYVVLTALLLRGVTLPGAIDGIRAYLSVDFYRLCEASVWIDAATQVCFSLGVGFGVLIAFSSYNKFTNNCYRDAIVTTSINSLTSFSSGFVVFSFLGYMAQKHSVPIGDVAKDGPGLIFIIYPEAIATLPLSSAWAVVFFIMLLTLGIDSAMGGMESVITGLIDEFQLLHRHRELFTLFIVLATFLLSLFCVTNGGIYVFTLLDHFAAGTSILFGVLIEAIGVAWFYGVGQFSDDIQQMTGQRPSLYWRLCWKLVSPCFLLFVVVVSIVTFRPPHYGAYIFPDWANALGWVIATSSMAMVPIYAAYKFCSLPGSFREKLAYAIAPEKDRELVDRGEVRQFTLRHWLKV
Where [1] appears, read: Hill fit of dose-response normalized to 10 μM DA, −60 mV.
[2] abbreviates: ability to generate a persistent current at 10 μM and −60 mV.

For the compound `Cl.NCCc1ccc(O)cc1` [3-des-OH DA (3), 2-(4-Hydroxyphenyl)-1-aminoethane hydrochloride], the Hill coefficients is 0.91 ±0.08; the “Persistent Current” value was “no pronounced persistent current and No”. The EC50 (EC50) is 1450 nM and 1430 nM.

Under setting [1], `NCCc1cccc(O)c1` [4-des-OH DA (4), 2-(3-Hydroxyphenyl)-1-aminoethane] registered a Hill coefficients of 1.07 ±0.09. The “Persistent Current” value was “No” under setting [2]; “no pronounced persistent current” (ability to generate a persistent current at 10 μM and −60 mV, listed as 4-des-OH DA).

In the case of `COC(=O)[C@H]1[C@@H](OC(=O)c2ccccc2)C[C@@H]2CC[C@H]1N2C` [Cocaine, reference compound], the “Block of induced currents through hDAT” value was “blocks the DA- and R(−)AMPH-induced initial currents”.

For the compound `NCCc1ccc(O)c(O)c1` [DA (2), dopamine, reference compound], the Hill coefficients was found to be 1.32 ±0.07, the “Persistent Current” value is on record as “No” and the “Rank order of efficacy” value was “S(+)AMPH > DA > R(−)AMPH”.

With `C[C@@H](N)Cc1ccc(O)cc1.Cl` [R(−) α-Me 3-des-OH DA (R6), R(–)-1-(4-Hydroxyphenyl)-2-aminopropane hydrochloride], under setting [1], the Hill coefficients amounted to 0.98 ± 0.08. Under setting [2], the “Persistent Current” value was “No”. The “Relative persistent current (Ip relative to Io) after washout” value (“Relative persistent current” for short) (−60 mV) is listed as “much lower persistent current than S(+)AMPH (S1)”.

`Br.C[C@@H](N)Cc1ccc(O)c(O)c1` [R(−) α-Me DA (R7), R(−)-1-(3,4-Dihydroxyphenyl)-2-aminopropane hydrobromide] yielded a Hill coefficients under setting [1] of 0.55 ± 0.06. For the same compound, under setting [2], the “Persistent Current” value is reported as “No”.

Turning to `COC(=O)[C@H]1C(c2ccc(I)cc2)C[C@@H]2CC[C@H]1N2C` (stereo partly shown) [RTI-55, reference compound], the “Block of S(+)AMPH-induced initial peak current and persistent current” value (10 μM RTI-55, −60 mV) is given as “blocked”.

As for `C[C@H](N)Cc1ccc(O)cc1.Cl` [S(+) α-Me 3-des-OH DA (S6), S(+)-1-(4-Hydroxyphenyl)-2-aminopropane hydrochloride], the “Recovery time constant T50 upon removal of compound, compared to DA” value (10 μM, −60 mV, normalized to 10 μM DA in same cell) was “no significant differences”. Under setting [1], this compound displayed a Hill coefficients of 0.49 ± 0.05. Also, the “Persistent Current” value under setting [2] is “No”. Moreover, for the setting “−60 mV”, the “Relative persistent current” value is “much lower persistent current than S(+)AMPH (S1)”.

As for `Br.C[C@H](N)Cc1ccc(O)c(O)c1` [S(+) α-Me DA (S7), S(+)-1-(3,4-Dihydroxyphenyl)-2-aminopropane hydrobromide], under setting [1], the Hill coefficients stood at 0.71 ± 0.11. Moreover, under setting [2], the “Persistent Current” value was “No”.

`COc1ccc(CCN)cc1` [compound 8, 2-(4-Methoxyphenyl)-1-aminoethane]: the Depolarizing current result (10 μM) is “comparatively small depolarizing currents”.

Take `COc1cccc(CCN)c1` [compound 9, 2-(3-methoxyphenyl)-1-aminoethane]: the Depolarizing current entry (10 μM) is on record as “comparatively small depolarizing currents”.

In the case of `NCCc1ccccc1` [β-PEA (5), 2-phenyl-1-aminoethane, reference compound], the Persistent Current result is recorded as “pronounced persistent current” (100 μM, −60 mV) and “Yes” under setting [2]. Besides, under setting [1], the Hill coefficients was 1.06 ± 0.16. Further, under “−60 mV”, the “Relative persistent current” value is on record as “much lower persistent current than S(+)AMPH (S1)”.
